Assay results as given in the NIST ThermoML archive (doi:10.1021/je8003595).

Experiment: mn = molality of the nth substance listed, in mol/kg
Conditions: 101 kPa, Liquid; for viscosity: Capillary tube (Ostwald / Ubbelohde) method

O=C(Oc1ccccc1)c1ccccc1O [phenyl salicylate] + CC#N
Conditions	mass density [kg/m3]	viscosity [mPa·s]
293.15 K, m1 = 0.0096	783.179	0.3086
293.15 K, m1 = 0.0128	783.379	0.3087
293.15 K, m1 = 0.016	783.559	0.3088
293.15 K, m1 = 0.0192	783.709	0.3091
293.15 K, m1 = 0.0224	783.871	0.3092
293.15 K, m1 = 0.0257	784.031	0.3094
293.15 K, m1 = 0.0321	784.222	0.3097
298.15 K, m1 = 0.0097	777.771	0.2867
298.15 K, m1 = 0.0129	777.981	0.2869
298.15 K, m1 = 0.0161	778.151	0.2871
298.15 K, m1 = 0.0194	778.309	0.2873
298.15 K, m1 = 0.0226	778.451	0.2875
298.15 K, m1 = 0.0258	778.609	0.2876
298.15 K, m1 = 0.0323	778.835	0.288
303.15 K, m1 = 0.0097	772.334	0.2649
303.15 K, m1 = 0.013	772.545	0.265
303.15 K, m1 = 0.0162	772.724	0.2652
303.15 K, m1 = 0.0195	772.856	0.2653
303.15 K, m1 = 0.0227	773.025	0.2655
303.15 K, m1 = 0.026	773.165	0.2656
303.15 K, m1 = 0.0326	773.351	0.2659
308.15 K, m1 = 0.0098	766.875	0.2453
308.15 K, m1 = 0.0131	767.071	0.2455
308.15 K, m1 = 0.0164	767.241	0.2457
308.15 K, m1 = 0.0197	767.385	0.2459
308.15 K, m1 = 0.023	767.558	0.2461
308.15 K, m1 = 0.0263	767.695	0.2463
308.15 K, m1 = 0.0329	767.859	0.2466
310.15 K, m1 = 0.0098	764.642	0.238
310.15 K, m1 = 0.0131	764.835	0.2381
310.15 K, m1 = 0.0164	765.015	0.2382
310.15 K, m1 = 0.0197	765.153	0.2384
310.15 K, m1 = 0.023	765.331	0.2385
310.15 K, m1 = 0.0263	765.465	0.2386
310.15 K, m1 = 0.0329	765.629	0.2388
313.15 K, m1 = 0.0099	761.351	0.2272
313.15 K, m1 = 0.0132	761.545	0.2274
313.15 K, m1 = 0.0165	761.711	0.2276
313.15 K, m1 = 0.0198	761.849	0.2278
313.15 K, m1 = 0.0231	762.019	0.2279
313.15 K, m1 = 0.0264	762.135	0.228
313.15 K, m1 = 0.033	762.341	0.2282
